Biological target: T1, Mitogen-activated protein kinase kinase kinase 5 (Homo sapiens, UniProt Q99683)
T1 sequence (Q99683 whole entry): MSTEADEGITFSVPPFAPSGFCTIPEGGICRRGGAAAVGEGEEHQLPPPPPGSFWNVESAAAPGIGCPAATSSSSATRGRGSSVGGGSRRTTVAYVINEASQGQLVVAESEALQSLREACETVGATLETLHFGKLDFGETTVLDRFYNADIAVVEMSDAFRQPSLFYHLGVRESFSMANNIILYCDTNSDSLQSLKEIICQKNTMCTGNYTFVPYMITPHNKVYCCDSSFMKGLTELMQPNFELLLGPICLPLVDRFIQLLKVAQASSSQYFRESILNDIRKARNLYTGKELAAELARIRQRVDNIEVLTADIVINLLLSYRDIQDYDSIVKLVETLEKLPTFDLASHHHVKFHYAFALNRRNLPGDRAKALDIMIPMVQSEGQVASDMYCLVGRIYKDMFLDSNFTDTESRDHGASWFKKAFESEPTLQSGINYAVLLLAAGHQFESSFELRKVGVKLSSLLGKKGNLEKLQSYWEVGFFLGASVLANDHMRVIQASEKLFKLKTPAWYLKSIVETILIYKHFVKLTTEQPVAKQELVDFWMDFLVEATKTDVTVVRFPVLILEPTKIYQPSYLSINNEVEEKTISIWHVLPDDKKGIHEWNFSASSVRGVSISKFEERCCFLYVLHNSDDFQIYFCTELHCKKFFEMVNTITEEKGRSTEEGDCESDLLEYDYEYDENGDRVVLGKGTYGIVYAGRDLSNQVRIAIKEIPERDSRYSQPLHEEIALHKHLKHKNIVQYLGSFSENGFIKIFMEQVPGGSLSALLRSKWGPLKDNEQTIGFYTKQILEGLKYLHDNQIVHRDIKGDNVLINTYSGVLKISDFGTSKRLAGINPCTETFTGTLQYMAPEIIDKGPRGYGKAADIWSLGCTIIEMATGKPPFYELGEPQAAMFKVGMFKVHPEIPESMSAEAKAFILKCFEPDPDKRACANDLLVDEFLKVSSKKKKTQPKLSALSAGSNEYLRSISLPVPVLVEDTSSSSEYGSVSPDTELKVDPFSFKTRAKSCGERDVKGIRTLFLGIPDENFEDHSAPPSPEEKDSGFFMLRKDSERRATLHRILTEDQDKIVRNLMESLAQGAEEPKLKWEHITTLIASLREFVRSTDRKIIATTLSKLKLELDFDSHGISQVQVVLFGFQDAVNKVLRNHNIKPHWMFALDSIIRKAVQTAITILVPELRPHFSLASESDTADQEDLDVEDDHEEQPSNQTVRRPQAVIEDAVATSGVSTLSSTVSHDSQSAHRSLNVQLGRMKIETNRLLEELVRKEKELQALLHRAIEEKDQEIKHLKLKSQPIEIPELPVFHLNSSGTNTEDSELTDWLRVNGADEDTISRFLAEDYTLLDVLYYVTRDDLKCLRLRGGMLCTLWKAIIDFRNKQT
Test: Biochemical Assay: The binding of compounds to ASK1 were determined using DiscoverX's proprietary technology. […] The assay is performed by combining three components: DNA-tagged ASK1 kinase; immobilized ligand; and a test compound. The ability of the test compound to compete with the immobilized ligand is measured via quantitative PCR of the DNA tag. […] The liganded beads were blocked with excess biotin and washed with blocking buffer (SeaBlock (Pierce), 1% BSA, 0.05% Tween 20, 1 mM DTT) to remove unbound ligand and to reduce nonspecific binding. […] Kds were determined using an 11-point 3-fold compound dilution series with three DMSO control points. […] The compounds were then diluted directly into the assays such that the final concentration of DMSO was 0.9%. All reactions were performed in polypropylene 384-well plate. […] The kinase concentration in the eluates was measured by qPCR. Most Kds were determined using a compound top concentration=30,000 nM.

Compound | Kd [nM]
O=C1Nc2cccc(n2)-c2nncn2CCCCOc2ccc(-c3ccc(CCF)nc3)cc21 | < 100
Cc1ncc(-c2ccc3c(c2)C(=O)Nc2cccc(n2)-c2nncn2CCCCO3)cc1F | < 100
